Results: patent US20200352905A1, “6-(2,4-DICHLOROPHENYL)-5-[4-[(3S)-1-(3-FLUOROPROPYL)PYRROLIDIN-3-YL]OXYPHENYL]-8,9-DIHYDRO-7H-BENZO[7]ANNULENE-2-CARBOXYLIC ACID FOR USE IN METASTATIC OR ADVANCED BREAST CANCER PATIENTS” (SANOFI, priority 2019, published 2020)
“Also recorded” adds a separate entry of the source.

Tests used:
[1] = system: ER-positive and HER2-negative advanced breast cancer; test: TED14856 Part A: antitumor activity per RECIST v1.1 (BOR, ORR, CBR)
Source text: The signal extinction between baseline and on study treatment ^18FES-PET scans constitute the PD readout of the ER engagement.
Patients with an early progression as per RECIST v1.1 or who died from disease progression are evaluable for response.
Preliminary efficacy is descriptively presented on activity/efficacy population.

[2] = Phase 1/2 study TED14856 Part A (dose escalation): safety, DLT, TEAEs; format: in vivo
Experimental: This is an open-label, non-comparative, dose escalation and dose expansion, safety, efficacy, PK and PD evaluation study of compound (1) administered orally as monotherapy.
Dose escalation is initiated with a once daily (QD) schedule with a starting dose of 20 mg/day. Dose escalation is expected to proceed according to the Table A below. Intra-patient dose escalation is not permitted.
Part A of this study is designed using the 3+3 concept: 3 to 6 patients are treated at each dose level, depending on DLTs observed in the first 3 patients. If one of the first 3 evaluable patients experiences DLT during Cycle 1, this cohort is expanded with a total of up to 6 patients. If less than 1 out of 3 patients or less than 2 out of 6 patients experience DLTs at a given dose level, the dose escalation is proceeded to the next dose level.
For the QD regimen, during Cycle 1, one dose is taken on Day 1 in fasting condition, no dose on Day 2 and repeated administration starts from Day 3. On Day 3 only, the dose is taken in fed condition for a food effect evaluation, and then all subsequent administrations are taken in fasted condition, and at approximately the same time each day (±3 hours). From the conclusions drawn with the initial QD dose regimen, patients treated with other dose regimens are allowed to take Compound (1) in fasted or fed condition. For the BID regimen, the 600 mg dose is split in two drug administrations: 300 mg taken two times a day 12 hours apart (i.e. 2×300 mg)±1 hour with or without food (with one dose only taken in the morning on Day 1, no dose on Day 2 and then repeated BID dosing from Day 3).
Incidence of study treatment-related DLTs at Cycle 1 (Day 1 to Day 28). DLT is defined as the occurrence of any of the following treatment-emergent adverse events (TEAEs) related to the study therapy using NCI-CTCAE (v4.03): • Any Grade ≥3 non-hematological toxicity, except: • Grade 3 nausea and vomiting resolving to Grade ≤1 within 48 hours, with or without adequate antiemetic treatment, • Grade 3 diarrhea, if controlled with adequate antidiarrheal therapy and lasting less than 48 hours. • Any Grade ≥3 hematological toxicity, except • Grade 3 anemia, • Grade 4 neutropenia <7 days, • Grade 3 neutropenia without fever or infection, • Grade 3 thrombocytopenia without bleeding. • Any elevated total serum bilirubin >2×ULN. • Any toxicity related to study treatment, resulting in omission of the study treatment for 7 days or more during Cycle 1. • A TEAE that in the opinion of the study committee is possibly or probably study treatment-related and is of potential clinical significance such that further dose escalation would expose patients to unacceptable risk.
These TEAEs are considered as study treatment-related in the absence of evidence to the contrary and if not related to disease progression. If multiple toxicities are seen, the presence of DLT will be based on the most severe experienced toxicity. At the end of Cycle 1, each patient must be assessed by the Investigator as to whether or not the patient experienced DLT, and this information must be recorded within the appropriate screen of the electronic case report forms (eCRFs) and an electronic DLT notification (either DLT or not) is sent to the Sponsor. Patients can continue the treatment after resolution (Grade 1) of the adverse event (AE) or to their baseline status. Patients need to complete at least 75% of the intended doses at Cycle 1 to be evaluable and shall have ^18FES-PET scans evaluable at baseline and between Day 11 and Day 15 to be evaluable for DLTs in Part A.
Safety population includes all patients exposed to at least one dose of the study treatment.
Study treatment-related DLTs occurring during Cycle 1 are assessed and analyzed on the DLT-evaluable population. In addition, AEs meeting DLT criteria occurring in any additional cycle are assessed and analyzed on the safety population. […]

O=C(O)c1ccc2c(c1)CCCC(c1ccc(Cl)cc1Cl)=C2c1ccc(O[C@H]2CCN(CCCF)C2)cc1 [compound (1), 6-(2,4-dichlorophenyl)-5-[4-[(3S)-1-(3-fluoropropyl)pyrrolidin-3-yl]oxyphenyl]-8,9-dihydro-7H-benzo[7]annulene-2-carboxylic acid]
Clinical Benefit Rate ([1]; 20 mg, N=3): 0 n | Complete Response (CR) ([1]; 20 mg, N=3): 0 n | Objective Response Rate ([1]; 20 mg, N=3): 0 n | Partial Response (PR) ([1]; 20 mg, N=3): 0 n | Complete Response (CR) ([1]; 150 mg, N=3): 0 n | Complete Response (CR) ([1]; 200 mg, N=4): 0 n | Objective Response Rate ([1]; 200 mg, N=4): 0 n | Partial Response (PR) ([1]; 200 mg, N=4): 0 n | Complete Response (CR) ([1]; 400 mg, N=3): 0 n | Objective Response Rate ([1]; 400 mg, N=3): 0 n | Partial Response (PR) ([1]; 400 mg, N=3): 0 n | Complete Response (CR) ([1]; 600 mg, N=3): 0 n | Objective Response Rate ([1]; 600 mg, N=3): 0 n | Partial Response (PR) ([1]; 600 mg, N=3): 0 n | Complete Response (CR) ([1]; All, N=16): 0 n | patients with tumor shrinkage greater than 10% ([1]; N=16): 9 patients | Clinical Benefit Rate (CBR) ([1]; patients with ESR1 mutations (5/11)): 45.5% | Clinical Benefit Rate (CBR) ([1]; patients with wild-type ESR1 (3/5)): 60.0% | Patients with related TEAE: Urinary tract infection ([2]; Part A, N=16): 0 n | maximum tolerated dose (MTD) ([2]; Part A, up to 600 mg QD): not reached; also recorded: no MTD observed | patients who died during study period ([2]; Part A, 3 disease progression, 1 unknown reason): 4 patients | patients with serious TEAEs ([2]; Part A, all considered not associated with compound (1)): 3 patients | Patients with Gr3 TEAE: Abdominal pain upper ([2]; female, human, in vivo): 0 n | Patients with Gr3 TEAE: Arthralgia ([2]; female, human, in vivo): 0 n | Patients with Gr3 TEAE: Asthenia ([2]; female, human, in vivo): 0 n | Patients with Gr3 TEAE: Constipation ([2]; female, human, in vivo): 0 n | Patients with Gr3 TEAE: Cough ([2]; female, human, in vivo): 0 n | Patients with Gr3 TEAE: Decreased appetite ([2]; female, human, in vivo): 0 n | Patients with Gr3 TEAE: Diarrhea ([2]; female, human, in vivo): 0 n | Patients with Gr3 TEAE: Dry skin ([2]; female, human, in vivo): 0 n | Patients with Gr3 TEAE: Dysgeusia ([2]; female, human, in vivo): 0 n | Patients with Gr3 TEAE: Hot flush ([2]; female, human, in vivo): 0 n | Patients with Gr3 TEAE: Hypertension ([2]; female, human, in vivo): 0 n | Patients with Gr3 TEAE: Hypoaesthesia ([2]; female, human, in vivo): 0 n | Patients with Gr3 TEAE: Musculoskeletal chest pain ([2]; female, human, in vivo): 0 n | Patients with Gr3 TEAE: Myalgia ([2]; female, human, in vivo): 0 n | Patients with Gr3 TEAE: Nasopharyngitis ([2]; female, human, in vivo): 0 n | Patients with Gr3 TEAE: Nausea ([2]; female, human, in vivo): 0 n | Patients with Gr3 TEAE: Night sweat ([2]; female, human, in vivo): 0 n | Patients with Gr3 TEAE: Pain ([2]; female, human, in vivo): 0 n | Patients with Gr3 TEAE: Photophobia ([2]; female, human, in vivo): 0 n | Patients with Gr3 TEAE: Rash ([2]; female, human, in vivo): 0 n | Patients with Gr3 TEAE: Upper respiratory tract infection ([2]; female, human, in vivo): 0 n | Patients with Gr3 TEAE: Vomiting ([2]; female, human, in vivo): 0 n | Patients with related Gr3 TEAE: ALL ([2]; female, human, in vivo): 0 n | Patients with related Gr3 TEAE: Abdominal pain upper ([2]; female, human, in vivo): 0 n | Patients with related Gr3 TEAE: Arthralgia ([2]; female, human, in vivo): 0 n | Patients with related Gr3 TEAE: Asthenia ([2]; female, human, in vivo): 0 n | Patients with related Gr3 TEAE: Back pain ([2]; female, human, in vivo): 0 n | Patients with related Gr3 TEAE: Constipation ([2]; female, human, in vivo): 0 n | Patients with related Gr3 TEAE: Cough ([2]; female, human, in vivo): 0 n | Patients with related Gr3 TEAE: Decreased appetite ([2]; female, human, in vivo): 0 n | Patients with related Gr3 TEAE: Diarrhea ([2]; female, human, in vivo): 0 n | Patients with related Gr3 TEAE: Dry skin ([2]; female, human, in vivo): 0 n | Patients with related Gr3 TEAE: Dysgeusia ([2]; female, human, in vivo): 0 n | Patients with related Gr3 TEAE: Dyspnoea ([2]; female, human, in vivo): 0 n | Patients with related Gr3 TEAE: Fatigue ([2]; female, human, in vivo): 0 n | Patients with related Gr3 TEAE: Hot flush ([2]; female, human, in vivo): 0 n | Patients with related Gr3 TEAE: Hypertension ([2]; female, human, in vivo): 0 n | Patients with related Gr3 TEAE: Hypoaesthesia ([2]; female, human, in vivo): 0 n | Patients with related Gr3 TEAE: Musculoskeletal chest pain ([2]; female, human, in vivo): 0 n | Patients with related Gr3 TEAE: Myalgia ([2]; female, human, in vivo): 0 n | Patients with related Gr3 TEAE: Nasopharyngitis ([2]; female, human, in vivo): 0 n | Patients with related Gr3 TEAE: Nausea ([2]; female, human, in vivo): 0 n | Patients with related Gr3 TEAE: Night sweat ([2]; female, human, in vivo): 0 n | Patients with related Gr3 TEAE: Pain ([2]; female, human, in vivo): 0 n | Patients with related Gr3 TEAE: Photophobia ([2]; female, human, in vivo): 0 n | Patients with related Gr3 TEAE: Rash ([2]; female, human, in vivo): 0 n | Patients with related Gr3 TEAE: Upper respiratory tract infection ([2]; female, human, in vivo): 0 n | Patients with related Gr3 TEAE: Urinary tract infection ([2]; female, human, in vivo): 0 n | Patients with related Gr3 TEAE: Vomiting ([2]; female, human, in vivo): 0 n | Patients with related TEAE: Cough ([2]; female, human, in vivo): 0 n | Patients with related TEAE: Dysgeusia ([2]; female, human, in vivo): 0 n | Patients with related TEAE: Hypoaesthesia ([2]; female, human, in vivo): 0 n | Patients with related TEAE: Musculoskeletal chest pain ([2]; female, human, in vivo): 0 n | Patients with related TEAE: Nasopharyngitis ([2]; female, human, in vivo): 0 n | Patients with related TEAE: Rash ([2]; female, human, in vivo): 0 n | Patients with related TEAE: Upper respiratory tract infection ([2]; female, human, in vivo): 0 n | serious TEAEs reported ([2]; female, human, in vivo): 4
